These results are taken from PMC4621749 (The Journal of General Physiology, 2015).

The target of the test is T1, frog TRPV3 (Xenopus tropicalis TRPV3) (Xenopus tropicalis, UniProt F6UZP3).
T1 sequence (F6UZP3 1-773): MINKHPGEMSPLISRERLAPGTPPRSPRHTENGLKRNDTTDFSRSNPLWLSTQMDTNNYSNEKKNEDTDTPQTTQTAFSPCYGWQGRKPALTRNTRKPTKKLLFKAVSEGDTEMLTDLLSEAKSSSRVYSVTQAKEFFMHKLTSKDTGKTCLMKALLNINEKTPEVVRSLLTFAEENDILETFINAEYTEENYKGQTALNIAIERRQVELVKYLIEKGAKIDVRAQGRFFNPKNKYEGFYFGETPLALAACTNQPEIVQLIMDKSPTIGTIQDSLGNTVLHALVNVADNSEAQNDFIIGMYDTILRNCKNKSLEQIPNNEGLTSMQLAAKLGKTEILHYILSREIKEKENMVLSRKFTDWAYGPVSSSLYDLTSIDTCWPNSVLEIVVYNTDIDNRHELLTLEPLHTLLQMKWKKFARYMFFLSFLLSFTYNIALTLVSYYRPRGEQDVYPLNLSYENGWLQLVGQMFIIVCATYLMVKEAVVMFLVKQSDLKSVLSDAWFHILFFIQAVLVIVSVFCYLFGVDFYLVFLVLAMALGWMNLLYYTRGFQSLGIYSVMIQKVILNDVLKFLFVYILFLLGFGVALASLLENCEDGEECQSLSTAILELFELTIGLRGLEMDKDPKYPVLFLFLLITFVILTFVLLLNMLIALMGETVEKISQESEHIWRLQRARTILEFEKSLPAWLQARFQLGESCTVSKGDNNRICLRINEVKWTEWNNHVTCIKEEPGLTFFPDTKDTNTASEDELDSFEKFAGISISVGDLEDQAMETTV
Description: whole-cell patch clamp, HEK293, Hill fit of current density. The test is classed as cell-based. Background: Patch clamp records ionic current or voltage across a cell membrane.

Molecule `NCCOB(c1ccccc1)c1ccccc1` [2-APB] yielded an EC50 of 269 ± 28 µM.

As a reminder, the EC50 is the concentration at which the effect is half-maximal. Low readings indicate higher potency in that assay, high ones lower potency in that assay.
